Columns and labels:
[1] = tested on: human primary macrophages (PHM); assay: Marker expression (immunohistochemistry) in human primary macrophages with SP alone or with NK1 antagonists; assay type: cell-based; conditions: SP 1 μM + antagonist 1 μM; 48 h
Protocol: In this sense the next step was to analyze the effect exerted by the treatment with non-peptide NK1 antagonists in human primary macrophages (PHM) obtained and purified from pleural effusion samples obtained from men with chronic age range between 45 and 55 years. Briefly, the pleural fluid from chronic (rich in macrophages) was centrifuged.
After 48 hours of culture, cells were harvested and cellular paraffin blocks were constructed for immunohistochemical analysis (see Example 1). To analyze the expression of markers EGF, MMP-9, VEGF and IL-8 antibodies were used as follows: EGF (rabbit monoclonal antibody, anti-EGF; 07-1432. Merck-Millipore), MMP-9 (polyclonal rabbit anti-MMP-9: SAB4501896, Sigma-Aldrich), VEGF (mouse monoclonal anti-VEGF, GF25-100UG, Merck-Millipore) and TNF-α (mouse monoclonal anti-TNF-α, number MAB 1021 catalogue, obtained from Merck-Millipore). All of these antibodies were used at a concentration of 1/1000. System for labelling with a secondary antibody specific for the primary antibodies obtained from rabbit or mouse was used, as was necessary in each case, both the Envision (Dako). All experiments were carried out sixfold.

[2] = tested on: fibroblasts (PHF) co-cultured with tumor cells, ovarian carcinoma (EFO-27); assay: Marker expression (IHC) in PHF co-cultured with EFO-27 tumor cells; assay type: cell-based, human; conditions: co-culture with EFO-27; SP 1 μM + antagonist 1 μM; 48 h;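 further: values are the percentage of PHF fibroblasts positive for each marker, cultured in fresh plasma from a healthy human donor, each experiment run in six replicates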
Protocol: (§1) All cultures were maintained 48 hours, following which the same cells were included in paraffin blocks for subsequent analysis of the expression of different markers by immunohistochemistry (see Example 1). […] All experiments were carried out sixfold. Analyzed markers in fibroblast cells (stromal cells) were: TGF-α, TGF-β1, TGF-β2, TGF-β3, SPARC, MMP-3, MMP-7, MMP-9, MMP-11, MMP-13 and MMP-14.

[3] = tested on: fibroblasts (PHF) co-cultured with human choriocarcinoma tumor cells (AC-1M32); assay: Marker expression (IHC) in PHF co-cultured with AC-1M32 tumor cells; assay type: cell-based; conditions: co-culture with AC-1M32; SP 1 μM + antagonist 1 μM; 48 h;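 further: Read-out is the percentage of PHF fibroblasts positive for each marker, with cells grown in fresh healthy-donor blood plasma, six replicates, reference being fibroblasts cultured alone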
Protocol: as §1

[4] = tested on: fibroblasts (PHF) co-cultured with tumor cells of human cervix carcinoma (KB); assay: Marker expression (IHC) in PHF co-cultured with KB tumor cells; assay type: cell-based; conditions: co-culture with KB; SP 1 μM + antagonist 1 μM; 48 h;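 further: percentage of PHF fibroblasts showing expression of each marker, cultured in fresh blood plasma from a healthy human donor, six replicates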
Protocol: as §1

[5] = tested on: fibroblasts (PHF) co-cultured with tumor cells in human prostate carcinoma (22Rv1); assay: Marker expression (IHC) in PHF co-cultured with 22Rv1 tumor cells; assay type: cell-based; conditions: co-culture with 22Rv1; SP 1 μM + antagonist 1 μM; 48 h;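 further: cultures grown on fresh plasma from a healthy donor, each experiment run sixfold, values give the percentage of fibroblasts positive for the given marker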
Protocol: as §1

[6] = tested on: fibroblasts (PHF) co-cultured with human glioma tumor cells (GAMG); assay: Marker expression (IHC) in PHF co-cultured with GAMG tumor cells; assay type: cell-based; conditions: co-culture with GAMG; SP 1 μM + antagonist 1 μM; 48 h;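 further: percentage of PHF fibroblasts positive for each marker, cultured in fresh plasma from a healthy donor, six replicates, with fibroblasts cultured alone as reference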
Protocol: as §1

[7] = tested on: fibroblasts (PHF) co-cultured with human melanoma tumor cells (MEL-HO1); assay: Marker expression (IHC) in PHF co-cultured with MEL-HO1 tumor cells; assay type: cell-based; conditions: PHF co-cultured with MEL-HO1 + SP + NK1 antagonist;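 further: values are the percentage of fibroblasts positive for each marker, with cultures grown in fresh healthy-donor blood plasma and each experiment run six times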
Protocol: as §1

[8] = tested on: fibroblasts (PHF) co-cultured with human neuroblastoma tumor cells (KELLY); assay: Marker expression (IHC) in PHF co-cultured with KELLY tumor cells; assay type: cell-based; conditions: PHF co-cultured with KELLY + SP + NK1 antagonist;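 further: Co-cultures grown on healthy-donor human blood plasma, run in six replicates, value is percentage of fibroblasts positive for each marker, compared with fibroblasts cultured alone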
Protocol: as §1

[9] = tested on: fibroblasts (PHF) co-cultivated with tumor cell lymphoblastic leukemia B (SDI); assay: Marker expression (IHC) in PHF co-cultured with SDI tumor cells; assay type: cell-based, human; conditions: PHF co-cultivated with SDI + SP + NK1 antagonist
Protocol: as §1

[10] = tested on: leukocyte cells (mono and polymorphonuclear) in co-culture with cells isolated from primary human tumors; assay: Marker expression (IHC) in leukocytes co-cultured with primary human tumor cells (colon, pancreatic, lung carcinoma, glioma, melanoma); assay type: cell-based; conditions: SP 1 μM + antagonist 1 μM;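 further: tumor cells and leukocytes came from the same patients, co-culture contents were paraffin-embedded for immunohistochemistry with antibodies to TGF-β2 or NF-kB, leukocytes cultured alone served as control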
Protocol: To check that the interaction of the human primary tumor cells with cells of the immune/inflammatory (mono and polymorphonuclear leukocytes) cells, stimulates the secretion of substances of importance for survival and tumor progression, cultures were carried out using sets of immune cells/inflammatory (mono and polymorphonuclear leukocytes) with tumor cells obtained directly from primary human tumors of the same patients.
The same method described in Example 7 and 9 was used to obtain tumor cells from primary human tumors. Similarly cultured immune cells/inflammatory (mono and polymorphonuclear leukocytes) were used as control and secondly, cultured tumor cells isolated from patients in the presence of immune cells/inflammatory (mono and polymorphonuclear leukocytes).
Then, paraffin blocks were prepared with the contents of each of the groups mentioned previously for expression studies using immunohistochemistry. On this occasion, in order to identify the secretion of substances with importance for the survival and progression of tumor the following markers were analyzed: TGF-β2 (SAB4502956) and NF-kB (SAB4501992) using specific antibodies against them. All antibodies used were rabbit polyclonal antibodies obtained from Sigma Aldrich and were used at a concentration of 1/1000. Immunohistochemical techniques were performed and evaluated as described in previous examples.

[11] = tested on: macrophages in co-culture with cells isolated from primary human tumors; assay: Marker expression (IHC) in macrophages co-cultured with primary human tumor cells (colon, breast, ovarian, lung carcinoma, melanoma); assay type: cell-based; conditions: SP 1 μM + antagonist 1 μM;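 further: macrophages came from pleural or peritoneal washings of the patient who also supplied the tumor cells, and both were co-cultured on fresh blood plasma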
Protocol: To check that the interaction of tumor cells obtained directly from primary human immune cell/inflammatory (macrophages) cells, obtained from the patient stimulate secretion of substances by these macrophages recognized as important in survival of both cell types and in the progression of tumor cells, co-cultures were performed on fresh blood plasma, immune cell/inflammatory (macrophages) with tumor cells derived from primary tumors. All obtained from the same patient, to build an experimental model similar to human physiology.
Macrophages were obtained from washing or pleural or peritoneal from the same patient from which the primary tumor cells were obtained in each case.

[12] = co-culture with cells isolated from colon carcinoma
[13] = co-culture with cells isolated from glioma
[14] = co-culture with cells isolated from lung carcinoma
[15] = co-culture with cells isolated from melanoma
[16] = co-culture with cells isolated from pancreatic carcinoma
[17] = co-culture with cells isolated from breast carcinoma
[18] = co-culture with cells isolated from ovarian carcinoma

CC(=O)N1CCN([C@H]2CCN(C(=O)N(C)[C@H](C)c3cc(C(F)(F)F)cc(C(F)(F)F)c3)[C@@H](c3ccc(F)cc3C)C2)CC1 [Casopitant]
0%: macrophages expressing EGF [1] | macrophages expressing MMP-9 [1] | macrophages expressing VEGF [1] | PHF cells expressing MMP-3 [2] | PHF cells expressing MMP-7 [2] | PHF cells expressing MMP-9 [2] | PHF cells expressing MMP-11 [2] | PHF cells expressing MMP-13 [2] | PHF cells expressing MMP-14 [2] | PHF cells expressing SPARC [2] | PHF cells expressing TGF-α [2] | PHF cells expressing TGF-β1 [2] | PHF cells expressing TGF-β2 [2] | PHF cells expressing TGF-β3 [2] | PHF cells expressing MMP-3 [3] | PHF cells expressing MMP-7 [3] | PHF cells expressing MMP-9 [3] | PHF cells expressing MMP-11 [3] | PHF cells expressing MMP-13 [3] | PHF cells expressing MMP-14 [3] | PHF cells expressing SPARC [3] | PHF cells expressing TGF-α [3] | PHF cells expressing TGF-β1 [3] | PHF cells expressing TGF-β2 [3] | PHF cells expressing TGF-β3 [3] | PHF cells expressing MMP-3 [4] | PHF cells expressing MMP-7 [4] | PHF cells expressing MMP-9 [4] | PHF cells expressing MMP-11 [4] | PHF cells expressing MMP-13 [4] | PHF cells expressing MMP-14 [4] | PHF cells expressing SPARC [4] | PHF cells expressing TGF-α [4] | PHF cells expressing TGF-β1 [4] | PHF cells expressing TGF-β2 [4] | PHF cells expressing TGF-β3 [4] | PHF cells expressing MMP-3 [5] | PHF cells expressing MMP-7 [5] | PHF cells expressing MMP-9 [5] | PHF cells expressing MMP-11 [5] | PHF cells expressing MMP-13 [5] | PHF cells expressing MMP-14 [5] | PHF cells expressing SPARC [5] | PHF cells expressing TGF-α [5] | PHF cells expressing TGF-β1 [5] | PHF cells expressing TGF-β2 [5] | PHF cells expressing TGF-β3 [5] | PHF cells expressing MMP-3 [6] | PHF cells expressing MMP-7 [6] | PHF cells expressing MMP-9 [6] | PHF cells expressing MMP-11 [6] | PHF cells expressing MMP-13 [6] | PHF cells expressing MMP-14 [6] | PHF cells expressing SPARC [6] | PHF cells expressing TGF-α [6] | PHF cells expressing TGF-β1 [6] | PHF cells expressing TGF-β2 [6] | PHF cells expressing TGF-β3 [6] | cells expressing MMP-3 [7] | cells expressing MMP-7 [7] | cells expressing MMP-9 [7] | cells expressing MMP-11 [7] | cells expressing MMP-13 [7] | cells expressing MMP-14 [7] | cells expressing SPARC [7] | cells expressing TGF-α [7] | cells expressing TGF-β1 [7] | cells expressing TGF-β2 [7] | cells expressing TGF-β3 [7] | cells expressing MMP-3 [8] | cells expressing MMP-7 [8] | cells expressing MMP-9 [8] | cells expressing MMP-11 [8] | cells expressing MMP-13 [8] | cells expressing MMP-14 [8] | cells expressing SPARC [8] | cells expressing TGF-α [8] | cells expressing TGF-β1 [8] | cells expressing TGF-β2 [8] | cells expressing TGF-β3 [8] | cells expressing MMP-3 [9] | cells expressing MMP-7 [9] | cells expressing MMP-9 [9] | cells expressing MMP-11 [9] | cells expressing MMP-13 [9] | cells expressing MMP-14 [9] | cells expressing SPARC [9] | cells expressing TGF-α [9] | cells expressing TGF-β1 [9] | cells expressing TGF-β2 [9] | cells expressing TGF-β3 [9] | Percentage of mononuclear leukocytes cells which expressed NF-kB [10, 12] | Percentage of mononuclear leukocytes cells which expressed TGF-β [10, 12] | Percentage of polymorphonuclear leukocytes cells which expressed NF-kB [10, 12] | Percentage of polymorphonuclear leukocytes cells which expressed TGF-β [10, 12] | Percentage of mononuclear leukocytes cells expressing NF-kB [10, 13] | Percentage of mononuclear leukocytes cells expressing TGF-β [10, 13] | Percentage of polymorphonuclear leukocytes cells expressing NF-kB [10, 13] | Percentage of polymorphonuclear leukocytes cells expressing TGF-β [10, 13] | Percentage of mononuclear leukocytes cells which expressed NF-kB [10, 14] | Percentage of mononuclear leukocytes cells which expressed TGF-β [10, 14] | Percentage of polymorphonuclear leukocytes cells which expressed NF-kB [10, 14] | Percentage of polymorphonuclear leukocytes cells which expressed TGF-β [10, 14] | Percentage of mononuclear leukocytes cells which expressed NF-kB [10, 15] | Percentage of mononuclear leukocytes cells which expressed TGF-β [10, 15] | Percentage of polymorphonuclear leukocytes cells which expressed NF-kB [10, 15] | Percentage of polymorphonuclear leukocytes cells which expressed TGF-β [10, 15] | Percentage of mononuclear leukocytes cells which expressed NF-kB [10, 16] | Percentage of mononuclear leukocytes cells which expressed TGF-β [10, 16] | Percentage of polymorphonuclear leukocytes cells which expressed NF-kB [10, 16] | Percentage of polymorphonuclear leukocytes cells which expressed TGF-β [10, 16] | Percentage of macrophages which expressed EGF [11, 17] | Percentage of macrophages which expressed MMP-9 [11, 17] | Percentage of macrophages which expressed VEGF [11, 17] | Percentage of macrophages which expressed EGF [11, 12] | Percentage of macrophages which expressed MMP-9 [11, 12] | Percentage of macrophages which expressed VEGF [11, 12] | Percentage of macrophages which expressed EGF [11, 14] | Percentage of macrophages which expressed MMP-9 [11, 14] | Percentage of macrophages which expressed VEGF [11, 14] | Percentage of macrophages which expressed EGF [11, 15] | Percentage of macrophages which expressed MMP-9 [11, 15] | Percentage of macrophages which expressed VEGF [11, 15] | Percentage of macrophages which expressed EGF [11, 18] | Percentage of macrophages which expressed MMP-9 [11, 18] | Percentage of macrophages which expressed VEGF [11, 18]

From patent US20180071317A1, “USE OF AGENTS THAT ALTER THE PERITUMORAL ENVIRONMENT FOR THE TREATMENT OF CANCER” (SERVICIO ANDALUZ DE SALUD, priority 2011, published 2018)
